{"source": "patent US20250032598A1", "about": "“Compounds, Pharmaceuticals, Formulations, and Methods for Treating and Preventing RNA Virus Infections and Associated Diseases” (ASAVI LLC, priority 2023, published 2025)", "key": {"influenza": {"system": "influenza", "conditions": "cited from earlier work"}, "SARS-CoV-2": {"system": "SARS-CoV-2", "type": "in vivo, Syrian hamsters"}, "[1]": {"conditions": "female Syrian hamsters, lung homogenates 96 hours after infection, 50,000 KIU/kg intravenously 2 times a day for 4 days, Lip-APR = composition 2"}, "[2]": {"conditions": "male Syrian hamsters, lung homogenates 96 hours after infection, 50,000 KIU/kg intravenously 2 times a day for 4 days, Lip-APR = composition 2"}, "[3]": {"conditions": "male and female Syrian hamsters pooled, lung homogenates, 10,000 KIU/ml, 50,000 KIU/kg intravenously"}}, "note": "Read-outs that look alike come from different tables or passages of the source.", "data": [{"substance": "aprotinin", "values": [{"measurement": "Reduction in viral load compared with patients treated with Ingavirin", "setting": "influenza; APR aerosol, patients", "value": "approximately 10 fold"}, {"measurement": "Side effects and discomfort", "setting": "influenza; patients of the APR group", "value": "not identified"}, {"measurement": "Duration of clinical symptoms, shorter than in the Ingavirin group", "setting": "influenza; rhinorrhea, weakness, headache, sore throat, cough, chest pain, fever", "value": "1 to 2", "unit": "days"}, {"measurement": "Infectious titer lg (TCID50/mL) ± SD", "setting": "SARS-CoV-2; [1]", "value": "4.38±0.85 lg (TCID50/mL)"}, {"measurement": "Viral load Ct ± SD", "setting": "SARS-CoV-2; [1]", "value": "17.51±1.04", "unit": "Ct"}, {"measurement": "Anti-SARS-CoV-2/COVID-19 efficacy (in words)", "setting": "SARS-CoV-2; intravenous, 50,000 KIU/kg, versus untreated control", "value": "no antiviral activity"}, {"measurement": "Infectious titer lg (TCID50/mL) ± SD", "setting": "SARS-CoV-2; [2]", "value": "3.88±0.48 lg (TCID50/mL)"}, {"measurement": "Viral load Ct ± SD", "setting": "SARS-CoV-2; [2]", "value": "17.51±1.28", "unit": "Ct"}, {"measurement": "Infectious titer lg (TCID50/mL) ± SD", "setting": "SARS-CoV-2; [3]", "value": "4.13±0.69 lg (TCID50/mL)"}, {"measurement": "Viral load Ct ± SD", "setting": "SARS-CoV-2; [3]", "value": "17.72±1.10", "unit": "Ct"}]}]}
